Source: ChEMBL document CHEMBL1129362 (J Med Chem, 1996)
pEC50, pIC50: −log10 of the molar value.

Tests used:
[1] = molecular target: T1, Cholecystokinin receptor type A (Homo sapiens, UniProt P32238); experiment: Binding affinity against human Cholecystokinin type A receptor by displacement of [125I]CCK-8
T1 sequence (P32238 whole entry): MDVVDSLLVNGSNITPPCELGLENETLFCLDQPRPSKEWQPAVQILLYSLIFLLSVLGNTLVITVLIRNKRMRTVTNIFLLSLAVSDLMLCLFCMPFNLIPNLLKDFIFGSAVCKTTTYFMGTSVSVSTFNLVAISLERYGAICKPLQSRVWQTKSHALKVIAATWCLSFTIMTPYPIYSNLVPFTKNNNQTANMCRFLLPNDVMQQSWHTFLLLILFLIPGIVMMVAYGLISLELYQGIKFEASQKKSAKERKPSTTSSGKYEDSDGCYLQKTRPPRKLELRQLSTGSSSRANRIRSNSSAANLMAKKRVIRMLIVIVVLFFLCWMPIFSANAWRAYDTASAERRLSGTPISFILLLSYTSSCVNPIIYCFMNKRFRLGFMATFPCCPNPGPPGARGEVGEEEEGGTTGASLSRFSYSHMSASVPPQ

[2] = molecular target: T2, Gastrin/cholecystokinin type B receptor (Homo sapiens, UniProt P32239); experiment: Binding affinity against human Cholecystokinin type B receptor by displacement of [125I]CCK-8
T2 sequence (P32239 whole entry): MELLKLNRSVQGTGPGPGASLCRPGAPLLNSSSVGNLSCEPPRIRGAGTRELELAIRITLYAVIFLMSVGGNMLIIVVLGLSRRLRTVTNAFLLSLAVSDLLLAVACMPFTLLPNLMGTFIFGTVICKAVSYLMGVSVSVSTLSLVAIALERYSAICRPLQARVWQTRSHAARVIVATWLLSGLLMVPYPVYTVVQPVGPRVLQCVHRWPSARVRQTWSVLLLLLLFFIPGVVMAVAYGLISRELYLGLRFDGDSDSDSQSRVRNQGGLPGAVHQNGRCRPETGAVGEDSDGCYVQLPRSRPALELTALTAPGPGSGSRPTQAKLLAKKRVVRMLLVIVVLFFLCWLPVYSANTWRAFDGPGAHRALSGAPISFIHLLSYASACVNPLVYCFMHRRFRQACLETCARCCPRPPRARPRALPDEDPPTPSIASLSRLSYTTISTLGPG

Cavia porcellus [3] = species: Cavia porcellus; experiment: Relative efficacy as determined maximal contraction was observed at 30 uM standardized to CCK-8; type: functional
Cavia porcellus [4] = species: Cavia porcellus; experiment: Compound was tested for agonist activity of isolated guinea pig gallbladder by using functional assay; conditions: read-out: ED50 (the source's name)
[5] = molecular target: Cholecystokinin receptor (Homo sapiens) (UniProt P32239+P32238); experiment: Selectivity ratio between IC50 values of CCK-A and CCK-B; type: protein assay
Cavia porcellus [6] = species: Cavia porcellus; experiment: Relative efficacy determined as maximal contraction was observed at 30 uM standardized to CCK-8; type: functional
Mus musculus [7] = experiment: Effective dose against mouse gall bladder emptying when administered orally; type: functional; conditions: po
Mus musculus [8] = experiment: In vivo percent emptying of mouse gallbladder when administered intraperitoneally; type: functional
Mus musculus [9] = experiment: Effective dose against mouse gall bladder emptying when administered intraperitoneally; type: functional; conditions: ip
Mus musculus [10] = experiment: In vivo percent emptying of mouse gallbladder when administered orally; type: functional
Mus musculus [11] = experiment: Effective dose against mouse gallbladder emptying when administered orally; type: functional
Mus musculus [12] = experiment: Effective dose against mouse gallbladder emptying when administered intraperitoneally; type: functional

| SMILES | pIC50 [1] | pIC50 [2] | pEC50 (Cavia porcellus [4]) | Selectivity ratio [5] | Max (Cavia porcellus [6]) | other results |
| --- | --- | --- | --- | --- | --- | --- |
| COc1ccc(N(C(=O)CN2C(=O)C(Cc3nn(Cc4ccccc4)c4ccccc34)C(=O)N(c3ccccc3)c3ccccc32)C(C)C)cc1 (stereo unspecified) | 6.51 | 4.00 | 6.47 | – | – | Max (Cavia porcellus [3]): 40% |
| COc1ccc(N(C(=O)CN2C(=O)C(Cc3c[nH]c4ccccc34)C(=O)N(c3ccccc3)c3ccccc32)C(C)C)cc1 (stereo unspecified) | – | 5.28 | 6.47 | 480 | 70% | – |
| COc1ccc(N(C(=O)CN2C(=O)C(C)(Cc3c[nH]c4ccccc34)C(=O)N(c3ccccc3)c3ccccc32)C(C)C)cc1 (stereo unspecified) | – | 4.76 | 6.28 | 2090 | 60% | – |
| COc1ccc(N(C(=O)CN2C(=O)C(C)(Cc3n[nH]c4ccccc34)C(=O)N(c3ccccc3)c3ccccc32)C(C)C)cc1 (stereo unspecified) | – | 4.16 | 6.49 | 5100 | 80% | – |
| CC(C)N(C(=O)CN1C(=O)C(C)(Cc2c[nH]c3ccccc23)C(=O)N(c2ccccc2)c2ccccc21)c1ccccc1 (stereo unspecified) | 6.97 | – | 6.33 | – | 80% | – |
| CC(C)N(C(=O)CN1C(=O)C(C)(CC(=O)Nc2ccccc2)C(=O)N(c2ccccc2)c2ccccc21)c1ccccc1 (stereo unspecified) | – | – | 6.72 | – | – | ED50 (Mus musculus [7]): 1 µmol/kg; Max (Cavia porcellus [3]): 80%; Empty (Mus musculus [8]): <70%; ED50 (Mus musculus [9]): 0.03 µmol/kg; Empty (Mus musculus [10]): <70% |
| CSCC[C@H](NC(=O)[C@H](Cc1ccc(OS(=O)(=O)O)cc1)NC(=O)[C@@H](N)CC(=O)O)C(=O)NCC(=O)N[C@@H](Cc1c[nH]c2ccccc12)C(=O)N[C@@H](CCSC)C(=O)N[C@@H](CC(=O)O)C(=O)N[C@@H](Cc1ccccc1)C(N)=O [SINCALIDE] | – | – | 8.70 | – | – | Max (Cavia porcellus [3]): 100%; Empty (Mus musculus [8]): <95%; ED50 (Mus musculus [9]): 3e-05 µmol/kg |
| CC(C)N(C(=O)CN1C(=O)C(Cc2n[nH]c3ccccc23)C(=O)N(c2ccccc2)c2ccccc21)c1ccccc1 (stereo unspecified) | 7.06 | 6.75 | 6.85 | 2 | 90% | – |
| CC(C)N(C(=O)CN1C(=O)C(C)(Cc2n[nH]c3ccccc23)C(=O)N(c2ccccc2)c2ccccc21)c1ccccc1 (stereo unspecified) | 6.92 | 5.58 | 7.70 | 20 | 80% | – |
| COc1ccc(N(C(=O)CN2C(=O)C(Cc3nn(C)c4ccccc34)C(=O)N(c3ccccc3)c3ccccc32)C(C)C)cc1 (stereo unspecified) | 7.37 | 5.62 | 7.15 | 60 | 90% | – |
| COc1ccc(N(C(=O)CN2C(=O)C(Cc3n[nH]c4ccccc34)C(=O)N(c3ccccc3)c3ccccc32)C(C)C)cc1 (stereo unspecified) | – | – | 6.96 | 50 | 100% | ED50 (Mus musculus [11]): 8 nM·kg; ED50 (Mus musculus [12]): 0.2 nM·kg; Activity (Mus musculus [8]): <90%; Activity (Mus musculus [10]): <90% |
